Assay results: ChEMBL document CHEMBL5247596, “SAR studies toward discovery of emvododstat (PTC299), a potent dihydroorotate dehydrogenase (DHODH) inhibitor” (Eur J Med Chem, 2022); call rule not given here

Tests used:
[1] = system: MOLM-13; assay: Cytotoxicity against human MOLM-13 cells assessed as reduction of cell viability incubated for 3 days by CellTiter-Glo assay; type: functional, cell-based; conditions: MOLM-13, 72 h; for CC50: time 3 day
[2] = AUC([…]) in mouse at 10 mg/kg, po administered via gavage measured upto 24 hrs by LC/MS-MS analysis; type: ADME, organism-based; set-up: dose 10 mg/kg, time < 24 hrs, route po; conditions: in vivo
[3] = Metabolic stability in mouse liver microsomes assessed as intrinsic clearance at 1 uM incubated upto 60 mins in presence of NADP by LC-MS analysis; type: ADME, Microsome; conditions: read-out: CLH
[4] = system: HT-1080; assay: Antitumor activity against human HT-1080 cells xenografted in mouse assessed as tumor growth inhibition at 10 mg/kg, po bid measured for 14 days relative to control; type: functional; conditions: HT-1080, 336 h, time 14 day, read-out: TGI
[5] = system: HT-1080; assay: Antitumor activity against human HT-1080 cells xenografted in mouse assessed as tumor growth inhibition at 50 mg/kg, po bid measured for 14 days relative to control; type: functional; conditions: HT-1080, 336 h, time 14 day, read-out: TGI
[6] = target: Dihydroorotate dehydrogenase (quinone), mitochondrial (Homo sapiens, UniProt Q02127); assay: Inhibition of DHODH in human HeLa cells assessed as reduction in hypoxia-induced VEGF expression incubated for 48 hrs by ELISA assay; type: cell-based
[7] = system: HT-1080; assay: Antitumor activity against human HT-1080 cells xenografted in mouse assessed as tumor growth inhibition at 10 mg/kg, po bid measured for 21 days relative to control; type: functional; conditions: HT-1080, 504 h, time 21 day, read-out: TGI
[8] = system: HT-1080; assay: Antitumor activity against human HT-1080 cells xenografted in mouse assessed as tumor growth inhibition at 2 mg/kg, po bid measured for 21 days relative to control; type: functional; conditions: HT-1080, 504 h, time 21 day, read-out: TGI
[9] = Oral bioavailability in Sprague-Dawley rat at 3 mg/kg by LC-MS/MS analysis; type: ADME, organism-based; conditions: in vivo
[10] = Toxicity in CHO cells assessed as chromosomal aberration; type: cell-based, Cricetulus griseus; conditions: chinese hamster
[11] = Toxicity in po dosed rat bone marrow by micronucleus assay; type: organism-based; conditions: in vivo
[12] = target: Voltage-gated inwardly rectifying potassium channel KCNH2 (Homo sapiens, UniProt Q12809); assay: Inhibition of hERG (unknown origin); type: toxicity
[13] = Genotoxicity in Salmonella typhimurium by Ames test; type: toxicity; conditions: salmonella enterica subsp. enterica serovar typhimurium
[14] = Oral bioavailability in Beagle dog at 3 mg/kg by LC-MS/MS analysis; type: ADME, organism-based, Canis lupus familiaris; conditions: in vivo

Chain of Dihydroorotate dehydrogenase (quinone), mitochondrial (Q02127 whole entry): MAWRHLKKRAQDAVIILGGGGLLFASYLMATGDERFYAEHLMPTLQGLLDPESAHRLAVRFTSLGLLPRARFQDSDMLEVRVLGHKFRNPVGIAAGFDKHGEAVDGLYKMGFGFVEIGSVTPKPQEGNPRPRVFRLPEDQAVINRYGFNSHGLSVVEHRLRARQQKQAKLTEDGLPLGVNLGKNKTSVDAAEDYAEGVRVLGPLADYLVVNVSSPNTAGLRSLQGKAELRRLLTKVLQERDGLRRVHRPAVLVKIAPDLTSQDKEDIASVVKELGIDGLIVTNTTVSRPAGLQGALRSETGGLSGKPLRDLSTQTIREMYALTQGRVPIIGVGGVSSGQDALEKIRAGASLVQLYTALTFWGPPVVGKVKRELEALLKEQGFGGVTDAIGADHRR
Chain of Voltage-gated inwardly rectifying potassium channel KCNH2 (Q12809 whole entry): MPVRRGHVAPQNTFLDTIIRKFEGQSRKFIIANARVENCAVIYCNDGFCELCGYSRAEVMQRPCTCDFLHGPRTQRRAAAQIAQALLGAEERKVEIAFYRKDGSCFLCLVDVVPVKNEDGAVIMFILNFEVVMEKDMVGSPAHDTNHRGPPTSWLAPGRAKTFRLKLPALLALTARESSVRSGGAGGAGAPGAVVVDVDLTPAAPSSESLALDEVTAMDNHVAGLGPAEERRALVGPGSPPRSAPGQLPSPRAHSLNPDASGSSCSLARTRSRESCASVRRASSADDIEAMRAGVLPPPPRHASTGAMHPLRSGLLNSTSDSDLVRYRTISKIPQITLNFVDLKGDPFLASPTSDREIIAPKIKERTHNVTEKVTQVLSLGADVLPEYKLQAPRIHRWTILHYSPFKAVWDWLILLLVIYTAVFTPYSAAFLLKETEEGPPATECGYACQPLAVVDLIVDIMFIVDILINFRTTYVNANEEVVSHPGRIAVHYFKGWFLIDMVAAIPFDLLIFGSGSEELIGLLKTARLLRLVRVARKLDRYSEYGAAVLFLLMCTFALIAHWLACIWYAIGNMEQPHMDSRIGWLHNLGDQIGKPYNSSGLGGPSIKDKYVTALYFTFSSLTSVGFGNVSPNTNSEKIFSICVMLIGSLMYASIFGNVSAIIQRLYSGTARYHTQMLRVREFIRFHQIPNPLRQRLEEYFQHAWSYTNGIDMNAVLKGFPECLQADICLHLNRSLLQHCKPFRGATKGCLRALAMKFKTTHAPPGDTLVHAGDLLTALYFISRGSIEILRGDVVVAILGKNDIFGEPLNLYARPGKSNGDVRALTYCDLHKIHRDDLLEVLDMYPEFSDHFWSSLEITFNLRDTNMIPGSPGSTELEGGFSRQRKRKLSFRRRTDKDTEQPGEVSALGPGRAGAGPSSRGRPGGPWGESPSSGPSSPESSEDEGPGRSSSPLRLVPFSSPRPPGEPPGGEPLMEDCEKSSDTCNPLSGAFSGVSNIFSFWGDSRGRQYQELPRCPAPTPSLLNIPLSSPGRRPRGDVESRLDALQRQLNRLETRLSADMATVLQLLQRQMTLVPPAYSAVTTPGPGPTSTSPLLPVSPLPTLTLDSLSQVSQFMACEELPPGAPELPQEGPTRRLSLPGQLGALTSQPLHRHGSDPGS

Structure (SMILES)	CC50 [1] [µM]	also measured
COc1ccc(C2NCCc3c2[nH]c2ccccc32)cc1 (stereo not given)	> 30	–
COc1ccc(C2NCCc3c2[nH]c2ccc(Cl)cc32)cc1 (stereo not given)	1.2	–
CCOC(=O)N1CCc2c([nH]c3ccc(Cl)cc23)C1c1ccc(OC)cc1 (stereo not given)	0.025	AUC(0-t) at 24 h [2]: 580 ng·h/mL; CLint scaled at 1 µM [3]: 190 mL/min/kg; inhibition in vivo at 10 mg/kg [4]: 2%; inhibition in vivo at 50 mg/kg [5]: 52%
CCOC(=O)N1CCc2c([nH]c3cc(F)ccc23)C1c1ccc(OC)cc1 (stereo not given)	> 1	–
COc1ccc(C2c3[nH]c4ccc(Cl)cc4c3CCN2C)cc1 (stereo not given)	0.337	–
COc1ccc(C2c3[nH]c4ccc(Cl)cc4c3CCN2C(=O)OC2CCCCC2)cc1 (stereo not given)	0.041	–
COc1ccc(C2c3[nH]c4ccc(Cl)cc4c3CCN2C(=O)OCCF)cc1 (stereo not given)	0.037	CLint scaled at 1 µM [3]: 227 mL/min/kg
COc1ccc(C2c3[nH]c4ccc(Cl)cc4c3CCN2C(=O)Oc2ccccc2Cl)cc1 (stereo not given)	0.126	–
COC(=O)N1CCc2c([nH]c3ccc(Cl)cc23)C1c1ccc(OC)cc1 (stereo not given)	0.04	CLint scaled at 1 µM [3]: 174 mL/min/kg
COc1ccc(C2c3[nH]c4cc(Cl)ccc4c3CCN2C(=O)Oc2ccc(Cl)cc2)cc1 (stereo not given)	0.306	–
COc1ccc(C2c3[nH]c4ccc(C)cc4c3CCN2C(=O)Oc2ccc(Cl)cc2)cc1 (stereo not given)	0.062	–
COc1ccc(C2c3[nH]c4ccc(Cl)cc4c3CCN2C(=O)Oc2ccccc2C)cc1 (stereo not given)	0.225	–
CCOC(=O)N1CCc2c([nH]c3ccc(Cl)cc23)C1c1cccc(OC)c1 (stereo not given)	0.048	–
COc1ccc(C2c3[nH]c4ccc(Cl)cc4c3CCN2C(=O)OC(C)C)cc1 (stereo not given)	0.037	–
CCOC(=O)N1CCc2c([nH]c3ccc(Cl)cc23)C1c1ccccc1OC (stereo not given)	0.192	–
COc1ccc(C2c3[nH]c4ccc(Cl)cc4c3CCN2C(=O)OC(C)(C)C)cc1 (stereo not given)	0.039	–
CCOC(=O)N1CCc2c([nH]c3cccc(F)c23)C1c1ccc(OC)cc1 (stereo not given)	> 1	–
COc1ccc(C2c3[nH]c4ccc(Cl)cc4c3CCN2C(C)=O)cc1 (stereo not given)	0.274	–
COc1ccc(C2c3[nH]c4ccc(Cl)cc4c3CCN2C=O)cc1 (stereo not given)	0.325	–
CCOC(=O)N1CCc2c([nH]c3ccc(Cl)cc23)C1c1ccccc1 (stereo not given)	0.052	CLint scaled at 1 µM [3]: 92 mL/min/kg
COc1ccc([C@H]2c3[nH]c4ccc(Br)cc4c3C[C@@H]3C(=O)N(C4CCCCC4)C(=S)N23)cc1	–	EC50 [6]: 0.003 µM
COc1ccc(C2c3[nH]c4ccc(Cl)cc4c3CCN2Cc2ccccc2)cc1 (stereo not given)	0.265	–
CCOC(=O)N1CCc2c([nH]c3ccc(Cl)cc23)C1C1CCCCC1 (stereo not given)	0.119	–

Structure (SMILES)	CC50 [1] [µM]	also measured
COc1ccc([C@@H]2c3[nH]c4ccc(Cl)cc4c3CCN2C(=O)Oc2ccc(Cl)cc2)cc1	> 1	–
CCOC(=O)N1CCc2c([nH]c3ccc(Cl)cc23)C1c1cccc(F)c1 (stereo not given)	0.053	CLint scaled at 1 µM [3]: 151 mL/min/kg
COc1ccc([C@H]2c3[nH]c4ccc(Cl)cc4c3C[C@@H]3C(=O)N(C4CCCCC4)C(=S)N23)cc1	–	EC50 [6]: 0.001 µM
CCOC(=O)N1CCc2c([nH]c3ccc(Cl)cc23)C1c1ccc(Cl)cc1 (stereo not given)	0.019	AUC(0-t) at 24 h [2]: 550 ng·h/mL; CLint scaled at 1 µM [3]: 221 mL/min/kg
COc1ccc(C2c3[nH]c4ccc(Cl)cc4c3CCN2S(=O)(=O)c2ccccc2)cc1 (stereo not given)	> 1	–
CCOC(=O)N1CCc2c([nH]c3ccc(C#N)cc23)C1c1ccc(OC)cc1 (stereo not given)	0.284	–
CCOC(=O)N1CCc2c([nH]c3ccc(Cl)cc23)C1C (stereo not given)	> 1	–
COc1ccc(C2c3[nH]c4ccc(Cl)cc4c3CCN2C(=O)Oc2cccc(C)c2)cc1 (stereo not given)	0.077	–
COc1ccc(C2c3[nH]c4ccc(Cl)cc4c3CCN2C(=O)OC2CCC2)cc1 (stereo not given)	0.028	–
Brc1ccc2[nH]c3c(c2c1)CCCC3n1cccc1 (stereo not given)	–	EC50 [6]: 0.013 µM
COc1ccc(C2c3[nH]c4ccc(Cl)cc4c3CCN2C(=O)Oc2cccnc2)cc1 (stereo not given)	0.117	–
COc1ccc(C2c3[nH]c4ccc(Cl)cc4c3CCN2C(=O)Oc2ccc(C)cc2)cc1 (stereo not given)	0.031	AUC(0-t) at 24 h [2]: 2200 ng·h/mL; CLint scaled at 1 µM [3]: < 5 mL/min/kg
CCOC(=O)N1CCc2c([nH]c3ccc(OC)cc23)C1c1ccc(OC)cc1 (stereo not given)	0.215	–
CCOC(=O)N1CCc2c([nH]c3ccccc23)C1c1ccc(OC)cc1 (stereo not given)	> 1	–
COc1ccc(C2c3[nH]c4ccc(Cl)cc4c3CCN2C(=O)Oc2cccc(Cl)c2)cc1 (stereo not given)	0.013	–
COc1ccc(C2c3[nH]c4cccc(Cl)c4c3CCN2C(=O)Oc2ccc(Cl)cc2)cc1 (stereo not given)	0.389	–
CCOC(=O)N1CCc2c([nH]c3ccc(Cl)cc23)C1c1ccccc1Cl (stereo not given)	0.384	–
CCOC(=O)N1CCc2c([nH]c3ccc(F)cc23)C1c1ccc(OC)cc1 (stereo not given)	0.433	–
COc1ccc(C2NCCc3c2[nH]c2ccc(Br)cc32)cc1 (stereo not given)	0.92	–
CCOC(=O)N1CCc2c([nH]c3ccc(Cl)cc23)C1Cc1ccccc1 (stereo not given)	> 1	–
CCCOC(=O)N1CCc2c([nH]c3ccc(Cl)cc23)C1c1ccc(OC)cc1 (stereo not given)	0.023	–
COc1ccc(C2c3[nH]c4ccc(Cl)cc4c3CCN2C(=O)Oc2cccc(F)c2)cc1 (stereo not given)	0.027	–
CCOC(=O)N1CCc2c([nH]c3ccc(Cl)cc23)C1c1ccccc1F (stereo not given)	0.036	–

Structure (SMILES)	CC50 [1] [µM]	also measured
COc1ccc(OC(=O)N2CCc3c([nH]c4ccc(Cl)cc34)C2c2ccc(OC)cc2)cc1 (stereo not given)	0.073	–
COc1ccc(C2c3c(c4cc(Cl)ccc4n3C)CCN2C(=O)Oc2ccc(Cl)cc2)cc1 (stereo not given)	–	EC50 [1]: > 1 µM
COc1ccc(C2c3[nH]c4ccc(Cl)cc4c3CCN2C(=O)Oc2ccc(Cl)cc2)cc1 (stereo not given)	0.012	inhibition in vivo at 10 mg/kg [7]: 82%; inhibition in vivo at 2 mg/kg [8]: 63%; AUC(0-t) at 24 h [2]: 8600 ng·h/mL; CLint scaled at 1 µM [3]: < 5 mL/min/kg
COCCOC(=O)N1CCc2c([nH]c3ccc(Cl)cc23)C1c1ccc(OC)cc1 (stereo not given)	0.081	CLint scaled at 1 µM [3]: 365 mL/min/kg
CCNC(=S)N1CCc2c([nH]c3ccc(Cl)cc23)C1c1ccc(OC)cc1 (stereo not given)	0.477	–
CCOC(=O)N1CCc2c([nH]c3ccc(Br)cc23)C1c1ccc(OC)cc1 (stereo not given)	0.011	–
COc1ccc(C2c3[nH]c4ccc(Cl)cc4c3CCN2C(=O)OC2CCCC2)cc1 (stereo not given)	0.036	–
CCOC(=O)N1CCc2c([nH]c3c(F)cccc23)C1c1ccc(OC)cc1 (stereo not given)	> 1	–
CCOC(=O)N1CCc2c([nH]c3ccc(Cl)cc23)C1c1cccc(Cl)c1 (stereo not given)	0.034	CLint scaled at 1 µM [3]: 143 mL/min/kg
CCOC(=O)N1CCc2c([nH]c3c(C)cccc23)C1c1ccc(OC)cc1 (stereo not given)	> 1	–
CCN(CC)C(=O)N1CCc2c([nH]c3ccc(Cl)cc23)C1c1ccc(OC)cc1 (stereo not given)	> 1	–
COc1ccc(C2c3[nH]c4ccc(Cl)cc4c3CCN2C(=O)OC2CC2)cc1 (stereo not given)	0.037	–
COc1ccc(C2c3[nH]c4ccc(Cl)cc4c3CCN2c2ccccc2)cc1 (stereo not given)	0.133	–
CCNC(=O)N1CCc2c([nH]c3ccc(Cl)cc23)C1c1ccc(OC)cc1 (stereo not given)	0.929	–
COc1ccc(C2c3[nH]c4ccc(Cl)cc4c3CCN2C(=O)Oc2ccc(F)cc2)cc1 (stereo not given)	0.026	–
CCN1CCc2c([nH]c3ccc(Cl)cc23)C1c1ccc(OC)cc1 (stereo not given)	0.278	–
COc1ccc([C@H]2c3[nH]c4ccccc4c3C[C@@H]3C(=O)N(C4CCCCC4)C(=S)N23)cc1	–	EC50 [6]: 0.68 µM
CCOC(=O)N1CCc2c([nH]c3ccc(Cl)cc23)C1c1ccc(F)cc1 (stereo not given)	0.036	AUC(0-t) at 24 h [2]: 200 ng·h/mL
COc1ccc(C2c3[nH]c4ccc(Cl)cc4c3CCN2C(=O)Oc2cncnc2)cc1 (stereo not given)	0.074	–
COc1ccc(C2c3[nH]c4ccc(Cl)cc4c3CCN2C(=O)Oc2ccccc2F)cc1 (stereo not given)	0.059	–
O=C(Oc1ccc(Cl)cc1)N1CCn2c(cc3ccc(Cl)cc32)C1c1ccccc1 (stereo not given)	–	EC50 [1]: > 1 µM
COc1ccc(C2c3[nH]c4ccc(Cl)cc4c3CCN2C(=O)Oc2ccccc2)cc1 (stereo not given)	0.034	CLint scaled at 1 µM [3]: 22 mL/min/kg
COc1ccc([C@H]2c3[nH]c4ccc(Cl)cc4c3CCN2C(=O)Oc2ccc(Cl)cc2)cc1 [EMVODODSTAT]	0.006	bioavailability [9]: 119%; Activity [10]: Non-Toxic; Activity [11]: Non-Toxic; inhibition (INH) [12]: Not Active; Activity [13]: Non-Toxic; bioavailability [14]: 8%
